Results on two substances are retold here after PMC2921341, “Interaction of Serum- and Glucocorticoid Regulated Kinase 1 (SGK1) with the WW-Domains of Nedd4-2 Is Required for Epithelial Sodium Channel Regulation” (PLoS ONE, 2010).

The subject of this experiment is SGK. Kind of experiment: GST pulldown of SGK from COS7 lysate with WW-domain GST fusion proteins. Particulars: GST fusion on glutathione-Sepharose, COS7 lysate with SGK-FLAG or ΔN60SGK-HA, 3 h at 4°C, western blot, n = 7. The experiment is classed as binding, human. How it is done: In order to better understand the molecular nature of the interaction between Nedd4-2 and SGK, in vitro GST pulldown studies were performed. […] Individual WW-domains of Nedd4-2 or Nedd4, or combinations of Nedd4-2 WW-domains, were expressed as GST fusion proteins and purified on glutathione-Sepharose beads. Lysates of COS7 cells expressing SGK or ΔN60-SGK (both SGK constructs gave the same results) were incubated with the WW-domain fusion proteins or GST alone. Bound SGK was detected by western blotting with anti-FLAG/HA.
pGEX-KG containing the cDNA of WW-domains of Nedd4 and Nedd4-2 or the empty vector were transformed into Escherichia coli strain BL21, and expression of the WW-domains-GST fusion protein or GST alone was induced with 0.5 µM isopropyl-D-1-thiogalactopyranoside for 3 h at 37°C. Bacteria were lysed using BugBuster (Novagen, Merck KGaA, Darmstadt, Germany), and the GST fusion proteins were purified on glutathione-Sepharose beads (GE Healthcare, Little Chalfont, Bucks, U.K.). COS7 cells were transiently transfected with pMT3 containing SGK/SGKS422D-FLAG or ΔN60SGK-HA. […] The glutathione-Sepharose beads, along with the fusion proteins and any binding proteins, were collected by centrifugation (1 min, 16,000 g), washed extensively in T-TBS and analyzed by SDS-PAGE and Western blotting using anti-FLAG antibody. Resulting X-ray films were analyzed densitometrically.

“Nedd4 WW3: WW-domain 3 of Nedd4 (GFLPKGWEVRHAPNGRPFFIDHNTKTTTWEDPRL; left off: GST, end not stated, cleaved)”: the “binding to SGK in GST pulldown (in words)” value was “interact with SGK”.

For “Nedd4 WW1: WW-domain 1 of Nedd4, GST fusion (SPLPPGWEERQDILGRTYYVNHESRRTQWKRPTP; left off: GST, end not stated, kept)”, the “binding to SGK in GST pulldown (in words)” value is recorded as “interact with SGK”.
